Test results taken from the OligoGym collection.
Values joined by “and” are separate entries in the source; they are usually repeats but may differ in a detail not shown here. Identical values can stand only once. After the bases stand the sugars from the 5' end (letter, count) and the backbone: PS all phosphorothioate, else s phosphorothioate and o phosphodiester by linkage. Methylation of C is not given here. e = 2'-O-(2-methoxyethyl) (MOE); k = constrained ethyl (cEt); d = 2'-deoxy (DNA)

What was measured:
[1] = target: MALAT1; conditions: ASO, A431, 0.005 µM
[2] = target: IRF4; conditions: ASO

| Sequence | target mRNA inhibition [1] | further results |
| --- | --- | --- |
| AAAAAGGCTCGATGGA (sugars k3 d10 k3, PS) | 52% | – |
| AAAACCCCCGGAACTT (sugars k3 d10 k3, PS) | 9% | – |
| AAAAGATCGCCTTCAA (sugars k3 d10 k3, PS) | 34% | – |
| AAAAGTGGTTGCCCGC (sugars k3 d10 k3, PS) | 28% | – |
| AAAATGGCGGACTTTC (sugars k3 d10 k3, PS) | 30% | – |
| AAACAACATATTGCCG (sugars k3 d10 k3, PS) | 20% | – |
| AAACCCCCGGAACTTT (sugars k3 d10 k3, PS) | 5% | – |
| AAACGAAACATTGGCA (sugars k3 d10 k3, PS) | 46% | – |
| AAACTAAGCTACTATA (sugars k3 d10 k3, PS) | -17% | – |
| AAACTTATCTGCGGTT (sugars k3 d10 k3, PS) | 19% | – |
| AAAGAACTAGTGGTTC (sugars k3 d10 k3, PS) | -4% | – |
| AAAGAGTGTTCGCAGA (sugars k3 d10 k3, PS) | 54% | – |
| AAAGCCCACCCTCTAA (sugars k3 d10 k3, PS) | -26% | – |
| AAAGGTTACCATAAGT (sugars k3 d10 k3, PS) | 5% | – |
| AAAGTAGTTCTTCGGT (sugars k3 d10 k3, PS) | 17% | – |
| AAATACTTCATTACCC (sugars k3 d10 k3, PS) | 24% | – |
| AAATTTCCTTAGTTGG (sugars k3 d10 k3, PS) | 54% | – |
| AACACCCGGAAATCGG (sugars k3 d10 k3, PS) | 26% | – |
| AACATCTGATTCTAAC (sugars k3 d10 k3, PS) | 27% | – |
| AACCAACTTCCCCTTC (sugars k3 d10 k3, PS) | 16% | – |
| AACCACACACTACCAT (sugars k3 d10 k3, PS) | -7% | – |
| AACCACTCGCTTTCCC (sugars k3 d10 k3, PS) | 41% | – |

| Sequence | target mRNA inhibition [1] | further results |
| --- | --- | --- |
| AACCCCCGGAACTTTT (sugars k3 d10 k3, PS) | 1% | – |
| AACCGGAGCAGGAAGA (sugars k3 d10 k3, PS) | -16% | – |
| AACCTACAACACCCGG (sugars k3 d10 k3, PS) | 34% | – |
| AACTAAGCTACTATAT (sugars k3 d10 k3, PS) | -2% | – |
| AACTGATCTGACTTTG (sugars k3 d10 k3, PS) | 34% | – |
| AACTGGAAGCTCCTTC (sugars k3 d10 k3, PS) | 17% | – |
| AACTGTAAACCTGTGG (sugars k3 d10 k3, PS) | -8% | – |
| AACTTGCCATCTACTA (sugars k3 d10 k3, PS) | -18% | – |
| AAGAACTAGCACCTGC (sugars k3 d10 k3, PS) | 13% | – |
| AAGAACTAGTGGTTCC (sugars k3 d10 k3, PS) | 30% | – |
| AAGAATCCCCCCCAAG (sugars k3 d10 k3, PS) | 28% | – |
| AAGATTTGAGCTGCAA (sugars k3 d10 k3, PS) | -1% | – |
| AAGGCAAATCGCCATG (sugars k3 d10 k3, PS) | 14% | – |
| AATACCCTTCTGTTAA (sugars k3 d10 k3, PS) | 16% | – |
| AATACGACTGCTTAAA (sugars k3 d10 k3, PS) | 30% | – |
| AATCAGGTGAGGCTGA (sugars k3 d10 k3, PS) | -26% | – |
| AATCATTGGGAGTTAC (sugars k3 d10 k3, PS) | 24% | – |
| AATCCCTTCAGGATCA (sugars k3 d10 k3, PS) | 8% | – |
| AATCCCTTTACACCTC (sugars k3 d10 k3, PS) | 26% | – |
| AATCTAAAAGCATTGC (sugars k3 d10 k3, PS) | 30% | – |
| AATGGACATCTCTTCC (sugars k3 d10 k3, PS) | 27% | – |
| AATGTACTCAGCTTCA (sugars k3 d10 k3, PS) | 48% | – |

| Sequence | target mRNA inhibition [1] | further results |
| --- | --- | --- |
| AATTACTTCCGTTACG (sugars k3 d10 k3, PS) | 43% | – |
| AATTCGATCACCTTCC (sugars k3 d10 k3, PS) | 16% | – |
| AATTGGTAGCTTTCAT (sugars k3 d10 k3, PS) | 64% and 81% | – |
| AATTTAGAGCTTCTCC (sugars k3 d10 k3, PS) | 21% | – |
| AATTTTTCTACCGTTT (sugars k3 d10 k3, PS) | 11% | – |
| ACAAAACCCCCGGAAC (sugars k3 d10 k3, PS) | -153% | – |
| ACAAAACGAATTCAGG (sugars k3 d10 k3, PS) | 31% | – |
| ACAAACTTGCCATCTA (sugars k3 d10 k3, PS) | 39% | – |
| ACAACAAGTAAGCCCC (sugars k3 d10 k3, PS) | -7% | – |
| ACAACAATTTAGAGCT (sugars k3 d10 k3, PS) | 11% | – |
| ACAACTCGCATCACCG (sugars k3 d10 k3, PS) | -212% | – |
| ACAATCACTACTCCAA (sugars k3 d10 k3, PS) | 31% | – |
| ACAATTACCTAAACCC (sugars k3 d10 k3, PS) | 33% | – |
| ACAGAAGTCTCGGGCT (sugars k3 d10 k3, PS) | 19% | – |
| ACAGCTAAGATAGCAG (sugars k3 d10 k3, PS) | 2% | – |
| ACAGCTTATGGAACTT (sugars k3 d10 k3, PS) | 27% | – |
| ACATATTGCCGACCTC (sugars k3 d10 k3, PS) | 43% | – |
| ACATATTTTGCCCCCA (sugars k3 d10 k3, PS) | 19% | – |
| ACATCAAGGATGTATA (sugars k3 d10 k3, PS) | -6% | – |
| ACCAAAGACCTCGACA (sugars k3 d10 k3, PS) | 14% | – |
| ACCAAAGCTGCACTGT (sugars k3 d10 k3, PS) | 15% | – |
| ACCAACTAAGCGAATG (sugars k3 d10 k3, PS) | -12% | – |

| Sequence | target mRNA inhibition [1] | further results |
| --- | --- | --- |
| ACCACGAACTGCTGCT (sugars k3 d10 k3, PS) | 52% | – |
| ACCACTCTAAGATTGT (sugars k3 d10 k3, PS) | -11% | – |
| ACCAGGAGTGCCAACC (sugars k3 d10 k3, PS) | 8% | – |
| ACCAGTCCTTTTAGTA (sugars k3 d10 k3, PS) | -2% | – |
| ACCCCAACTAAACATA (sugars k3 d10 k3, PS) | 26% | – |
| ACCCGGAAATCGGCCT (sugars k3 d10 k3, PS) | -6% | – |
| ACCGTAACAGGCCACT (sugars k3 d10 k3, PS) | 20% | – |
| ACCTACAACACCCGGA (sugars k3 d10 k3, PS) | 25% | – |
| ACCTCTTAAAGCACTT (sugars k3 d10 k3, PS) | 18% | – |
| ACCTTCTGAACCGGAG (sugars k3 d10 k3, PS) | 22% | – |
| ACCTTGGGCAGCCAGT (sugars k3 d10 k3, PS) | -4% | – |
| ACGAAGAGATACCTGT (sugars k3 d10 k3, PS) | 18% | – |
| ACGCCAACACAGTTTG (sugars k3 d10 k3, PS) | 48% | – |
| ACGCTAAGCAATATCT (sugars k3 d10 k3, PS) | 37% | – |
| ACTAAAGGCTTCAGTC (sugars k3 d10 k3, PS) | 26% | – |
| ACTACCAGCCATTTCT (sugars k3 d10 k3, PS) | 49% | – |
| ACTACCATATCCAAAC (sugars k3 d10 k3, PS) | 27% | – |
| ACTATCACAATTCTTA (sugars k3 d10 k3, PS) | 13% | – |
| ACTCAAAGTCCAATGC (sugars k3 d10 k3, PS) | 31% | – |
| ACTCCCCCATTATATT (sugars k3 d10 k3, PS) | 2% | – |
| ACTCGCTCCTTCCTGG (sugars k3 d10 k3, PS) | 48% | – |
| TTCTAATGGTGCTCCT (sugars k3 d10 k3, PS) | – | target mRNA inhibition ([2]; SK-MEL-28, 4 µM): 7% |

| Sequence | target mRNA inhibition [1] | further results |
| --- | --- | --- |
| TTCTAGCTAACTTACA (sugars k3 d10 k3, PS) | – | target mRNA inhibition ([2]; MM.1R, 1 µM): -18% |
| TTCTAGGTAATCTGTA (sugars k3 d10 k3, PS) | – | target mRNA inhibition ([2]; SK-MEL-28, 4 µM): 38% |
| TTGAAAGACTAACTGG (sugars k3 d10 k3, PS) | – | target mRNA inhibition ([2]; SK-MEL-28, 4 µM): 20% |
| TTGAGGTTTTCCTAAA (sugars k3 d10 k3, PS) | – | target mRNA inhibition ([2]; SK-MEL-28, 4 µM): 29% |
| TTGATGTGATAGCTGA (sugars k2 d9 e3 k2, PS) | – | target mRNA inhibition ([2]; MM.1R, 1 µM): 17% |
| TTGATGTGATAGCTGA (sugars kkdddddddddkekek, PS) | – | target mRNA inhibition ([2]; MM.1R, 1 µM): 24% |
| TTGCAAGAGAACAGCC (sugars k3 d10 k3, PS) | – | target mRNA inhibition ([2]; SK-MEL-28, 4 µM): 39% |
| TTGTCCTCTGGGTAGG (sugars k3 d10 k3, PS) | – | target mRNA inhibition ([2]; SK-MEL-28, 4 µM): 30% |
| TTGTCTGGCTAGCAGA (sugars k3 d10 k3, PS) | – | target mRNA inhibition ([2]; SK-MEL-28, 4 µM): 45% |
| TTGTTAACAATGTATC (sugars k3 d10 k3, PS) | – | target mRNA inhibition ([2]; SK-MEL-28, 4 µM): 47% |
| TTTAAGTCATGTGTCA (sugars k3 d10 k3, PS) | – | target mRNA inhibition ([2]; SK-MEL-28, 4 µM): 50% |
| TTTACAGCATCTAAGG (sugars k3 d10 k3, PS) | – | target mRNA inhibition ([2]; SK-MEL-28, 4 µM): 34% |
| TTTAGTATCACCTCTA (sugars k3 d10 k3, PS) | – | target mRNA inhibition ([2]; MM.1R, 1 µM): 30% |
| TTTATAGTAGGTAAGA (sugars k3 d10 k3, PS) | – | target mRNA inhibition ([2]; SK-MEL-28, 4 µM): 6% |
| TTTATGCCCTCGCTCA (sugars k3 d10 k3, PS) | – | target mRNA inhibition ([2]; SK-MEL-28, 4 µM): 24% |
| TTTATGCGAAGAATTT (sugars k3 d10 k3, PS) | – | target mRNA inhibition ([2]; SK-MEL-28, 4 µM): 33% |
| TTTATGTTAGCCAATT (sugars kkdddddddddkdkdk, PS) | – | target mRNA inhibition ([2]; MM.1R, 1 µM): 11% and 34% |
| TTTATGTTAGCCAATT (sugars kkdddddddddkekek, PS) | – | target mRNA inhibition ([2]; MM.1R, 1 µM): 9% and 15% |
| TTTCACATGATAAGGC (sugars k3 d10 k3, PS) | – | target mRNA inhibition ([2]; SK-MEL-28, 4 µM): 43% |
| TTTCATATTTGGAGCC (sugars k3 d10 k3, PS) | – | target mRNA inhibition ([2]; MM.1R, 0.0625 µM): -3% and 21%; target mRNA inhibition ([2]; MM.1R, 0.25 µM): 10% and 18%; target mRNA inhibition ([2]; MM.1R, 1 µM): 25% and 45%; target mRNA inhibition ([2]; MM.1R, 4 µM): 45% and 60%; target mRNA inhibition ([2]; SK-MEL-28, 4 µM): 75% |
| TTTGAGACTTAACCCA (sugars k3 d10 k3, PS) | – | target mRNA inhibition ([2]; MM.1R, 1 µM): 31% |
| TTTGCTTTGGGCACCA (sugars k3 d10 k3, PS) | – | target mRNA inhibition ([2]; MM.1R, 1 µM): 24% |
